Tests used:
[1] = tested on: PC12 cells; test: Lectin array glycoanalysis (Qproteome Glycoprofiling Kit) of membrane proteins of PC12 cells treated with BFA; assay type: cell-based; conditions: 12 ug/ml BFA, 24 h
Protocol: (§1) Lectins with differing, well-characterized glycan-binding specificities are spotted on the surface of an array. The array is probed with a biotinylated membrane glycoprotein mixture and washed to reduce background. Bound biotinylated glycoproteins are visualized with Cy®3-labeled streptavidin using a microarray scanner. Following scanning, the resulting images are analyzed using Qiagen GlycoAnalyzer Software.
(§2) Each lectin is printed on the slides at seven concentrations. The analysis provides a lectin fingerprint for each sample: a histogram in which each bar represents the slope of the dose-response curve observed for each lectin. […] All fingerprints in an experiment are preferably normalized to the fingerprint of the reference sample. Microarray technologies generally require normalization between slides to adjust for variations that arise from technology, rather than from biological differences. The normalization in Qproteome Glycoprofiling Kits is preferably based on a robust-regression algorithm (using MM-estimators; please see Example 9 for a description).
Materials and Methods: PC12 cells were treated with 12 ug/ml BFA for 24 h. […] Cells were then harvested and analyzed with the Qproteome Glycoprofiling Kit (Qiagen USA; the assay was performed as described in the kit manual according to manufacturer's instructions).

[2] = tested on: 3T3L1 cells; test: Lectin array glycoanalysis (Qproteome Glycoprofiling Kit) of membrane proteins of 3T3L1 cells treated with DMJ; assay type: cell-based, mouse; conditions: pre-confluent 3T3L1 cells, 800 ug/ml DMJ, 3 days, FIG. 4
Protocol: as §1, §2
Materials and Methods: Pre-confluent 3T3L1 cells were incubated for 3 days in the presence or absence of 800 ug/ml DMJ. Cells were then harvested and analyzed with the Qproteome Glycoprofiling Kit (Qiagen USA; the assay was performed as described in the kit manual according to manufacturer's instructions).

SMILES	cell morphology / attachment [1]	antennarity of the membrane glycoproteins (lectin that binds N-linked complex antennary structures) ([1]; FIG. 3)	signals from lectins recognizing terminal sugars such as alpha-galactose, beta-galactose, sialic acid and fucose ([1]; FIG. 3)	antennarity (lectins that bind N-linked complex antennary structures) ([2]; vs non-treated cells)	signals from all oligomannose binding lectins (high mannose glycans) ([2]; vs non-treated cells)	sugars found on antennae termini such as beta galactose and sialic acid [2]
C[C@H]1CCC/C=C/[C@@H]2C[C@H](O)C[C@H]2[C@H](O)/C=C/C(=O)O1 [BFA, Brefeldin A]	morphological changes were observed and cells were detached	significant decrease	Decreases			
OC[C@H]1NC[C@@H](O)[C@@H](O)[C@@H]1O [DMJ, 1-deoxymannojirimycin]				strongly reduced	significantly increased	decrease
